Data taken from patent EP3696177A1, “HETEROCYCLIC COMPOUNDS FOR THE CONTROL OF INVERTEBRATE PESTS” (BASF SE, priority 2019, dated 2020).

Columns and labels:
Format in all cases: in vivo
[1] = test system: Aedes aegypti; assay: whole plant or invertebrate; conditions: 48 h, A. aegypti larvae, incubated 2 days, read-out: mortality in comparison with untreated controls (larval mortality)
Description: For evaluating control of yellow fever mosquito (Aedes aegypti) the test unit consisted of 96-well-microtiter plates containing 200µl of tap water per well and 5-15 freshly hatched A. aegypti larvae.
The active compounds were formulated using a solution containing 75% (v/v) water and 25% (v/v) DMSO. Different concentrations of formulated compounds or mixtures were sprayed onto the insect diet at 2.5µl, using a custom built micro atomizer, at two replications.
After application, microtiter plates were incubated at 28 + 1°C, 80 + 5 % RH for 2 days. Larval mortality was then visually assessed.

[2] = test system: dichromothrips corbetti; assay: Orchid thrips floral-immersion test; conditions: 72 h, read-out: mortality in comparison with untreated controls
Description: Dichromothrips corbetti adults used for bioassay are obtained from a colony maintained continu-ously under laboratory conditions. For testing purposes, the test compound is diluted in a 1:1 mix-ture of acetone:water (vol:vol), plus Kinetic at a rate of 0.01% v/v.
Thrips potency of each compound is evaluated by using a floral-immersion technique. Each orchid petal is dipped into treatment solution and allowed to dry in Petri dishes. Treated petals are placed into individual re-sealable plastic along with about 20 adult thrips. All test arenas are held under dark condition and a temperature of about 28°C for duration of the assay. The percent mor-tality is recorded 72 hours after treatment.

[3] = test system: Anthonomus grandis; assay: Boll weevil (Anthonomus grandis) insect diet microtiter plate test; conditions: 120 h, read-out: mortality in comparison with untreated controls (egg and larval mortality)
Description: For evaluating control of boll weevil (Anthonomus grandis) the test unit consisted of 96-well-microtiter plates containing an insect diet and 5-10 A. grandis eggs.
The compounds were formulated using a solution containing 75% v/v water and 25% v/v DMSO. Different concentrations of formulated compounds were sprayed onto the insect diet at 5 µl, using a custom built micro atomizer, at two replications.
After application, microtiter plates were incubated at about 25 + 1°C and about 75 + 5 % relative humidity for 5 days. Egg and larval mortality was then visually assessed.

[4] = test system: Aphis craccivora; assay: Cowpea aphid (Aphis craccivora) spray test on potted cowpea plants; conditions: aphids of various stages, after 72 hours, read-out: mortality in comparison with untreated controls
Description: The active compound is dissolved at the desired concentration in a mixture of 1:1 (vol: vol) distilled water: acetone. Surfactant (Kinetic) is added at a rate of 0.01% (vol/vol). The test solution is prepared at the day of use.
Potted cowpea plants are colonized with approximately 30 - 50 aphids of various stages by man-ually transferring aphid-infested leaf clippings 24 hours before application. Plants are sprayed with the test solutions using a DeVilbiss® hand atomizer at 20- 30 psi (≈ 1.38 to 2.07 bar) after the pest population has been checked. Treated plants are maintained on light carts at about 25- 26°C. Estimate percent mortality is assessed after 72 hours.

[5] = test system: Caenorhabditis elegans; assay: Caenorhabditis elegans liquid diet microtiter plate test; conditions: 96 h, read-out: mortality in comparison with untreated controls (nematode motility (mortality))
Description: For evaluating control of Caenorhabditis elegans through contact or systemic means the test unit consisted of 96-well-microtiter plates containing a liquid diet.
The compounds or mixtures were formulated using a solution containing 75% water and 25% DMSO. Different concentrations of formulated compounds were sprayed into the microtiter plate wells at 5µl per well, using a custom built micro atomizer, at two replications. Mixed instar 60-100 C. elegans were transferred into the micro-titer plate wells. After application, the nematodes were incubated at 18 + 1°C, 70 + 5 % RH for 4 days. Nematode motility (mortality) was then visually assessed.

[6] = test system: Heliothis virescens; assay: Tobacco budworm (Heliothis virescens) insect diet microtiter plate test; conditions: 120 h, read-out: mortality in comparison with untreated controls (egg and larval mortality)
Description: For evaluating control of tobacco budworm (Heliothis virescens) the test unit consisted of 96-well-microtiter plates containing an insect diet and 15-25 H. virescens eggs.
The compounds were formulated using a solution containing 75% v/v water and 25% v/v DMSO. Different concentrations of formulated compounds were sprayed onto the insect diet at 10 µl, us-ing a custom built micro atomizer, at two replications.
After application, microtiter plates were incubated at about 28 + 1°C and about 80 + 5 % relative humidity for 5 days. Egg and larval mortality was then visually assessed.

[7] = test system: Megoura viciae; assay: Vetch aphid (Megoura viciae) broad bean leaf disk test; conditions: foliar, 120 h, read-out: mortality in comparison with untreated controls
Description: For evaluating control of vetch aphid (Megoura viciae) through contact or systemic means the test unit consisted of 24-well-microtiter plates containing broad bean leaf disks.
The compounds were formulated using a solution containing 75% v/v water and 25% v/v DMSO. Different concentrations of formulated compounds were sprayed onto the leaf disks at 2.5 µl, us-ing a custom built micro atomizer, at two replications.
After application, the leaf disks were air-dried and 5 - 8 adult aphids placed on the leaf disks in-side the microtiter plate wells. The aphids were then allowed to suck on the treated leaf disks and incubated at about 23 + 1°C and about 50 + 5 % relative humidity for 5 days. Aphid mortality and fecundity was then visually assessed.

[8] = test system: Myzus persicae; assay: Green peach aphid (Myzus persicae) artificial diet/membrane systemic test; conditions: 72 h, read-out: mortality in comparison with untreated controls
Source text: For evaluating control of green peach aphid (Myzus persicae) through systemic means the test unit consisted of 96-well-microtiter plates containing liquid artificial diet under an artificial membrane.
The compounds were formulated using a solution containing 75% v/v water and 25% v/v DMSO. Different concentrations of formulated compounds were pipetted into the aphid diet, using a cus-tom built pipetter, at two replications.
After application, 5 - 8 adult aphids were placed on the artificial membrane inside the microtiter plate wells. The aphids were then allowed to suck on the treated aphid diet and incubated at about 23 + 1°C and about 50 + 5 % relative humidity for 3 days. Aphid mortality and fecundity was then visually assessed.

[9] = test system: Nephotettix virescens; assay: Rice green leafhopper (Nephotettix virescens) spray test on rice seedlings; conditions: adults, after 72 hours, read-out: mortality in comparison with untreated controls
Description: Four to five-week old rice seedlings with cut upper leaf portion are cleaned and washed 24 hours before spraying. The active compounds are formulated in 1:1 acetone:water (vol:vol), and 0.01% vol/vol surfactant (Kinetic) is added. Potted rice seedlings are sprayed with 5-6 ml test solution, air dried, covered with Mylar cages and inoculated with 10 adults. Treated rice plants are kept at about 28-29°C and relative humidity of about 50-60%. Percent mortality is recorded after 72 hours.

[10] = test system: Nezara viridula; assay: Green soldier stink bug (Nezara viridula) soybean pod spray test; conditions: 120 h, late 3rd instar N. viridula, after 5 days, read-out: mortality in comparison with untreated controls
Description: The active compound is dissolved at the desired concentration in a mixture of 1:1 (vol:vol) distilled water: aceteone. Surfactant (Kinetic) is added at a rate of 0.01% (vol/vol).The test solution is prepared at the day of use.
Soybean pods are placed in 90 x 50 mm glass Petri dishes lined with moistened filter paper and inoculated with ten late 3rd instar N. viridula. Using a hand atomizer, an approximately 2 ml solution is sprayed into each Petri dish. Treated set-up is kept at about 25-26°C and relative humidity of about 65-70%. Percent mortality is recorded after 5 days.

[11] = test system: Plutella xylostella; assay: Diamond back moth (Plutella xylostella) cabbage leaf disc dip test; conditions: foliar, 72 h, read-out: mortality in comparison with untreated controls
Description: The active compound is dissolved at the desired concentration in a mixture of 1:1 (vol:vol) distilled water: acetone. Surfactant (Kinetic) is added at a rate of 0.01% (vol/vol). The test solution is pre-pared at the day of use.
Cabbage leaf discs (60mm in diameter) are dipped in test solution and air-dried. Treated leaves are placed in petri dishes lined with moistened filter paper and inoculated with ten 3rd instar larvae. Mortality is recorded 72 hours after treatment. Feeding damage is also recorded using a scale of 0-100%.

[12] = test system: Tetranychus kanzawai; assay: Red spider mite (Tetranychus kanzawai) spray test on cowpea beans; conditions: topical, 72 h, read-out: mortality in comparison with untreated controls
Description: The active compound is dissolved at the desired concentration in a mixture of 1:1 (vol:vol) distilled water: acetone. Add surfactant (Kinetic) is added at a rate of 0.01% (vol/vol). The test solution is prepared at the day of use.
Potted cowpea beans of 4-5 days of age are cleaned with tap water and sprayed with 1-2 ml of the test solution using air driven DeVilbiss® hand atomizer at 20- 30 psi (≈ 1,38 to 2,07 bar). The treated plants are allowed to air dry and afterwards inoculated with 30 or more mites by clipping a cassava leaf section from rearing population. Treated plants are placed inside a holding room at about 25-26°C and about 65-70% relative humidity. Estimate percent mortality is assessed 72 hours after treatment.

Cc1cc(C2=NOC(c3cc(Cl)c(F)c(Cl)c3)(C(F)(F)F)C2)ccc1C(=O)NC1SC(=O)N(C(C)C)C1=O (stereo not drawn) [Compound I-1-11]
> 75%: mortality at 2500 ppm [1] | mortality at 300 ppm [2] | mortality at 2500 ppm [3] | mortality at 300 ppm [4] | mortality at 2500 ppm [5] | mortality at 2500 ppm [6] | mortality at 2500 ppm [7] | mortality at 2500 ppm [8] | mortality at 300 ppm [9] | mortality at 300 ppm [10] | mortality at 300 ppm [11] | mortality at 300 ppm [12]

CN1C(=O)SC(NC(=O)c2ccc(C3=NOC(c4cc(Cl)c(F)c(Cl)c4)(C(F)(F)F)C3)c3c2CCC3)C1=O (stereo not drawn) [Compound I-1-9]
> 75%: mortality at 2500 ppm [1] | mortality at 300 ppm [2] | mortality at 2500 ppm [3] | mortality at 300 ppm [4] | mortality at 2500 ppm [5] | mortality at 2500 ppm [6] | mortality at 2500 ppm [7] | mortality at 2500 ppm [8] | mortality at 300 ppm [9] | mortality at 300 ppm [10] | mortality at 300 ppm [11] | mortality at 300 ppm [12]

CC(C)N1C(=O)SC(NC(=O)c2ccc(C3=NOC(c4cc(Cl)cc(Cl)c4)(C(F)(F)F)C3)cc2Cl)C1=O (stereo not drawn) [Compound I-1-3]
> 75%: mortality at 2500 ppm [1] | mortality at 300 ppm [2] | mortality at 2500 ppm [3] | mortality at 2500 ppm [5] | mortality at 2500 ppm [6] | mortality at 2500 ppm [7] | mortality at 2500 ppm [8] | mortality at 300 ppm [10] | mortality at 300 ppm [11] | mortality at 300 ppm [12]

Cc1cc(C2=NOC(c3cc(Cl)cc(Cl)c3)(C(F)(F)F)C2)ccc1C(=O)NC1SC(=O)N(C)C1=O (stereo not drawn) [Compound I-1-4, 4-[5-(3,5-dichlorophenyl)-5-(trifluoromethyl)-4H-isoxazol-3-yl]-2-methyl-N-(3-methyl-2,4-dioxo-thiazolidin-5-yl)benzamide]
> 75%: mortality at 2500 ppm [1] | mortality at 300 ppm [2] | mortality at 2500 ppm [3] | mortality at 2500 ppm [6] | mortality at 2500 ppm [7] | mortality at 2500 ppm [8] | mortality at 300 ppm [9] | mortality at 300 ppm [10] | mortality at 300 ppm [11] | mortality at 300 ppm [12]

CN1COC(CNC(=O)c2ccc(C3=NOC(c4cc(Cl)cc(C(F)(F)F)c4)(C(F)(F)F)C3)c3c2CCC3)C1=O (stereo not drawn) [Compound I-3-3]
> 75%: mortality at 2500 ppm [1] | mortality at 300 ppm [2] | mortality at 2500 ppm [3] | mortality at 300 ppm [4] | mortality at 2500 ppm [6] | mortality at 2500 ppm [7] | mortality at 2500 ppm [8] | mortality at 300 ppm [9] | mortality at 300 ppm [10] | mortality at 300 ppm [11] | mortality at 300 ppm [12]

Cc1cc(C2=NOC(c3cc(Cl)cc(Cl)c3)(C(F)(F)F)C2)ccc1C(=O)NC1SC(=O)N(C(C)C)C1=O (stereo not drawn) [Compound I-1-6]
> 75%: mortality at 2500 ppm [1] | mortality at 300 ppm [2] | mortality at 2500 ppm [3] | mortality at 300 ppm [4] | mortality at 2500 ppm [6] | mortality at 2500 ppm [7] | mortality at 2500 ppm [8] | mortality at 300 ppm [9] | mortality at 300 ppm [10] | mortality at 300 ppm [11]

Cc1cc(C2=NOC(c3cc(Cl)cc(Cl)c3)(C(F)(F)F)C2)ccc1C(=O)NCC1OCN(C)C1=O (stereo not drawn) [Compound I-3-11]
> 75%: mortality at 2500 ppm [1] | mortality at 300 ppm [2] | mortality at 2500 ppm [3] | mortality at 300 ppm [4] | mortality at 2500 ppm [5] | mortality at 2500 ppm [6] | mortality at 2500 ppm [7] | mortality at 2500 ppm [8] | mortality at 300 ppm [11] | mortality at 300 ppm [12]

CCN1C(=O)SC(NC(=O)c2ccc(C3=NOC(c4cc(Cl)cc(Cl)c4)(C(F)(F)F)C3)cc2C)C1=O (stereo not drawn) [Compound I-1-5]
> 75%: mortality at 2500 ppm [1] | mortality at 300 ppm [2] | mortality at 2500 ppm [3] | mortality at 300 ppm [4] | mortality at 2500 ppm [6] | mortality at 2500 ppm [7] | mortality at 2500 ppm [8] | mortality at 300 ppm [9] | mortality at 300 ppm [10] | mortality at 300 ppm [11] | mortality at 300 ppm [12]

CN1C(=O)SC(NC(=O)c2ccc(C3=NOC(c4cc(Cl)cc(C(F)(F)F)c4)(C(F)(F)F)C3)c3c2CCC3)C1=O (stereo not drawn) [Compound I-1-8]
> 75%: mortality at 2500 ppm [1] | mortality at 300 ppm [2] | mortality at 2500 ppm [3] | mortality at 2500 ppm [6] | mortality at 2500 ppm [7] | mortality at 2500 ppm [8] | mortality at 300 ppm [9] | mortality at 300 ppm [10] | mortality at 300 ppm [11] | mortality at 300 ppm [12]
